US8642622B2, “Piperidinyl compound as a modulator of chemokine receptor activity” (Bristol-Myers Squibb Company, priority 2010, dated 2014)

Experiments:
[1] = biological target: T1, Human PXR (Homo sapiens, UniProt O75469); test: PXR transactivation assay (HepG2, CYP3A-Luc reporter); format: cell-based
T1 construct: expressed in transfected cells; host or cells: HepG2
T1 sequence (O75469 1-434): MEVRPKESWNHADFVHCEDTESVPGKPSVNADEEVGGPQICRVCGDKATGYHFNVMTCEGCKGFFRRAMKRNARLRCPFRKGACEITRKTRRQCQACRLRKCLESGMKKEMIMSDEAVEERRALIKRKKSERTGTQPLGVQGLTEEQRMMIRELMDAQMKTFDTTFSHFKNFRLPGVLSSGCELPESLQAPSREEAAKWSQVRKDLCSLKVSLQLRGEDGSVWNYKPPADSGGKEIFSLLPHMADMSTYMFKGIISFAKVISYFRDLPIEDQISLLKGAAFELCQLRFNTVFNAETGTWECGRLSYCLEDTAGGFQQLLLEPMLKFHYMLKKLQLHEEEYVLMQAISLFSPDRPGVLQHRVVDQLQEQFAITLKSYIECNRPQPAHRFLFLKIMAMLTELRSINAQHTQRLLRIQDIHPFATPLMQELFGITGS
Description: The cell culture medium used is DMEM. […] Charcoal/dextran treated fetal bovine serum (FBS) was purchased from Hyclone (Logan, Utah). HepG2 cells were obtained from ATCC (Manassas, Va.). Human PXR-pcDNA3 and luciferase reporter containing CYP3A4 promoter, CYP3A-Luc, were generated at Bristol-Myers Squibb. White tissue culture (TC)-surface 384-well plates were purchased from Perkin Elmer (Boston, Mass.). Luciferase substrate (Steady-Glo) was purchased from Promega (Madison, Wis.). Control compounds rifampicin, mifepristone, and sulfinpyrazone were purchased from Sigma (St. Louis, Mo.).
Culture of HepG2 cells is performed in T175 flasks using DMEM containing 10% FBS. The transfection mixture contains 1 μg/mL of PXR-pcDNA3 plasmid DNA, 20 μg/ml of Cyp3A-Luc plasmid DNA, 90 μL/mL of Lipofectamine 2000, and serum-free medium. After incubating at room temperature for 20 minutes, the transfection mixture (1 ml per flask) is applied to the cells in fresh medium (20 mL per flask), and flasks incubated at 37° C. (5% CO2) overnight.
The flasks are then tapped vigorously to break up cell aggregates. After the addition of 8 mL of DMEM containing 5% charcoal/dextran-treated FBS, the entire mixture is transferred to conical tubes. Cells are then centrifuged at 1000 rpm for 5 minutes. Cell pellets are resuspended to a final count of ˜7×10^6 cells/mL in freezing media (DMEM containing 20% serum and 10% DMSO). The cell suspension is aliquoted into 15-mL polypropylene tubes, 5 mL per tube. Cells are slowly frozen by placing in a Styrofoam-insulated container at −80° C. overnight. Vials are transferred to an Ultracold (−140° C.) freezer after 24 hours for long-term storage.
Vials of cryopreserved cells are thawed rapidly in a warm water bath for five minutes. Cells are pooled and diluted to 50 mL in a 50-mL conical vial. The thawed cells are centrifuged at 1500 rpm for 5 minutes to collect the cells and the supernatant discarded. Cells are then resuspended in fresh Media II (DMEM containing 5% charcoal/dextran-treated FBS, 1% Penicillin/Streptomycin, 100 μM Non-essential Amino Acids, 1 mM Sodium Pyruvate, and 2 mM L-Glutamine), counted using the Guava Cell Counter, and diluted to 1.6×10^5 cells/ml in the same media.
Fifty microliters of cell mixture is added to wells in columns 1-23 of white tissue-culture treated 384-well plates containing 0.25 μL of test compound dissolved in 100% DMSO. Fifty microliters of Media II is added to wells in column 24. The plates are incubated at 37° C. (5% CO2) for 24 hours, then 5 μL of Alamar Blue reagent (Trek Diagnostics, Cat #00-100) is added to each well. Plates are then incubated an additional two hours at 37° C., 5% CO2 and then one hour at room temperature. […] After the fluorescence is measured, 25 μL of luciferase substrate (Steady-Glo, Promega) is added to each well. The plates are incubated for fifteen minutes at room temperature, after which the luminescence is read on a PheraStar (BMG Labtech) plate reader.
Rifampicin (10 μM), a well-known agonist of PXR, is included in each plate as an internal standard and positive control. The data is then expressed as percent control (% CTRL), where the control signal is the signal from the 10 μM rifampicin and the blank signal is that from the DMSO vehicle. % CTRL=((Compound signal−Blank signal)/(Control signal−Blank signal))*100
The EC50 is defined as the concentration corresponding to half of the maximal response derived from the fitted 20-point curve as determined using a four-parameter logistic regression model. Additionally, compounds may also be reported as EC20 or EC60.

[2] = Human liver microsomal metabolism, Assay Conditions A; format: in vitro ADME; settings: 0.5 μM compound, 10 minutes, 37° C.
Experimental: Test compound is received as a 3.5 mM stock solution in 100 percent DMSO. Compound is diluted to create a 50 μM acetonitrile (ACN) solution containing 1.4% DMSO, which is then used as a 100× stock for incubation with microsomes. Each compound is tested in duplicate separately in each of three species in the Metabolic Stability-Human, Rat, and Mouse assay suite or as individual species in the Metabolic Stability-Dog or Metabolic Stability-Monkey suites. Compound, NADPH and liver microsome solutions are combined for incubation in three steps:
152 μL of liver microsome suspension, protein concentration of 1.1 mg/mL in 100 mM NaPi, pH 7.4, 6.6 mM MgCl2 buffer, is pre-warmed at 37° C.
• 1) 1.7 μL of 50 μM compound (98.6% ACN, 1.4% DMSO) is added to the same tube and pre-incubated at 37° C. for 5 minutes. • 2) The reaction is initiated by the addition of 17 μL of pre-warmed 10 mM NADPH solution in 100 mM NaPi, pH 7.4. • 3) Reaction components are mixed well, and 75 μL are immediately transferred into 150 μl quench/stop solution (zero-time point, To). Reactions are incubated at 37° C. for 10 minutes and then an additional 75 μL aliquot is transferred into 150 μL quench solution. Acetonitrile containing 100 μM DMN (a UV standard for injection quality control), is used as the quench solution to terminate metabolic reactions. • 4) Quenched mixtures are centrifuged at 1500 rpm (˜500×g) in an Allegra X-12 centrifuge, SX4750 rotor (Beckman Coulter Inc., Fullerton, Calif.) for fifteen minutes to pellet denatured microsomes. A volume of 90 μL of supernatant extract, containing the mixture of parent compound and its metabolites, is then transferred to a separate 96-well plate for UV-LC/MS-MS analysis to determine the percent of parent compound that is remaining in the mixture.

| SMILES | PXR activation (in vitro screen, in words) [1] | EC50 ([1]; HepG2, relative to 10 μM rifampicin) [µM] | PXR EC20 ([1]; reported as EC20) | Human Liver Microsomal Metabolism % remaining (Assay Conditions A) [2] |
| --- | --- | --- | --- | --- |
| CC(C)[C@@H](NC(=O)[C@@H]1CCC(F)(F)C1)C(=O)N1CC[C@](O)(c2ccc(Cl)cc2)[C@@](C)(O)C1 [Compound I, (R)—N—((R)-1-((3S,4S)-4-(4-chlorophenyl)-3,4-dihydroxy-3-methylpiperidin-1-yl)-3-methyl-1-oxobutan-2-yl)-3,3-difluorocyclopentanecarboxamide] | not a significant activator | > 50 | – | – |
| CC(C)COC(=O)N[C@@H](C(=O)N1CC[C@](O)(c2ccc(Cl)cc2)C(C)(C)C1)C(C)C [Example 1083] | – | – | 1.9 (EC20) μM | 13% (A) |
